Source: ChEMBL document CHEMBL5150066, “Synthesis of estrone selenocyanate Compounds, anti-tumor activity evaluation and Structure-activity relationship analysis” (Bioorg Med Chem, 2022)

Tests used:
SK-OV-3 [1] = test: Induction of apoptosis in human SK-OV-3 cells assessed as late apoptotic cells at 15 umol/L incubated for 24 hrs by Annexin V-FITC/PI staining based flow cytometric analysis (reference value: 5.51 %); assay type: functional; details: dose 15 µmol/L, at 15 µM
HeLa [2] = test: Antiproliferative activity against human HeLa cells assessed as inhibition of cell growth incubated for 72 hrs by MTT assay; assay type: functional, cell-based
T47D = test: Antiproliferative activity against human T47D cells assessed as inhibition of cell growth incubated for 72 hrs by MTT assay; assay type: functional, cell-based
SK-OV-3 [3] = test: Induction of apoptosis in human SK-OV-3 cells assessed as late apoptotic cells at 25 umol/L incubated for 24 hrs by Annexin V-FITC/PI staining based flow cytometric analysis (reference value: 5.51 %); assay type: functional; details: dose 25 µmol/L, at 25 µM
SK-OV-3 [4] = test: Induction of apoptosis in human SK-OV-3 cells assessed as viable cells at 25 umol/L incubated for 24 hrs by Annexin V-FITC/PI staining based flow cytometric analysis (reference value: 89.83 %); assay type: functional; details: SK-OV-3, 24 h, dose 25 µmol/L, read-out: Activity
HepG2 = test: Antiproliferative activity against human HepG2 cells assessed as inhibition of cell growth incubated for 72 hrs by MTT assay; assay type: functional, cell-based; details: HepG2, 72 h
SK-OV-3 [5] = test: Induction of apoptosis in human SK-OV-3 cells assessed as viable cells at 20 umol/L incubated for 24 hrs by Annexin V-FITC/PI staining based flow cytometric analysis (reference value: 89.83 %); assay type: functional; details: SK-OV-3, 24 h, dose 20 µmol/L, read-out: Activity
SK-OV-3 [6] = test: Induction of apoptosis in human SK-OV-3 cells assessed as viable cells at 5 umol/L incubated for 24 hrs by Annexin V-FITC/PI staining based flow cytometric analysis (reference value: 89.83 %); assay type: functional; details: SK-OV-3, 24 h, dose 5 µmol/L, read-out: Activity
SK-OV-3 [7] = test: Induction of apoptosis in human SK-OV-3 cells assessed as early apoptotic cells at 5 umol/L incubated for 24 hrs by Annexin V-FITC/PI staining based flow cytometric analysis (reference value: 4.66 %); assay type: functional; details: dose 5 µmol/L, at 5 µM
SK-OV-3 [8] = test: Induction of apoptosis in human SK-OV-3 cells assessed as late apoptotic cells at 10 umol/L incubated for 24 hrs by Annexin V-FITC/PI staining based flow cytometric analysis (reference value: 5.51 %); assay type: functional; details: dose 10 µmol/L, at 10 µM
SK-OV-3 [9] = test: Induction of apoptosis in human SK-OV-3 cells assessed as necrotic cells at 15 umol/L incubated for 24 hrs by Annexin V-FITC/PI staining based flow cytometric analysis (reference value: 0.00 %); assay type: functional; details: dose 15 µmol/L, at 15 µM
SK-OV-3 [10] = test: Induction of apoptosis in human SK-OV-3 cells assessed as necrotic cells at 10 umol/L incubated for 24 hrs by Annexin V-FITC/PI staining based flow cytometric analysis (reference value: 0.00 %); assay type: functional; details: dose 10 µmol/L, at 10 µM
[11] = Cytotoxicity against HEK293T cells assessed as inhibition of cell growth incubated for 72 hrs by MTT assay; assay type: toxicity, cell-based, HEK-293T; details: human
SK-OV-3 [12] = test: Induction of apoptosis in human SK-OV-3 cells assessed as early apoptotic cells at 25 umol/L incubated for 24 hrs by Annexin V-FITC/PI staining based flow cytometric analysis (reference value: 4.66 %); assay type: functional; details: dose 25 µmol/L, at 25 µM
SK-OV-3 [13] = test: Induction of apoptosis in human SK-OV-3 cells assessed as necrotic cells at 20 umol/L incubated for 24 hrs by Annexin V-FITC/PI staining based flow cytometric analysis (reference value: 0.00 %); assay type: functional; details: dose 20 µmol/L, at 20 µM
SK-OV-3 [14] = test: Induction of apoptosis in human SK-OV-3 cells assessed as early apoptotic cells at 10 umol/L incubated for 24 hrs by Annexin V-FITC/PI staining based flow cytometric analysis (reference value: 4.66 %); assay type: functional; details: dose 10 µmol/L, at 10 µM
SK-OV-3 [15] = test: Induction of apoptosis in human SK-OV-3 cells assessed as late apoptotic cells at 20 umol/L incubated for 24 hrs by Annexin V-FITC/PI staining based flow cytometric analysis (reference value: 5.51 %); assay type: functional; details: dose 20 µmol/L, at 20 µM
SK-OV-3 [16] = test: Antiproliferative activity against human SK-OV-3 cells assessed as inhibition of cell growth incubated for 72 hrs by MTT assay; assay type: functional, cell-based; details: SK-OV-3, 72 h
SK-OV-3 [17] = test: Induction of apoptosis in human SK-OV-3 cells assessed as necrotic cells at 5 umol/L incubated for 24 hrs by Annexin V-FITC/PI staining based flow cytometric analysis (reference value: 0.00 %); assay type: functional; details: dose 5 µmol/L, at 5 µM
SK-OV-3 [18] = test: Induction of apoptosis in human SK-OV-3 cells assessed as necrotic cells at 25 umol/L incubated for 24 hrs by Annexin V-FITC/PI staining based flow cytometric analysis (reference value: 0.00 %); assay type: functional; details: dose 25 µmol/L, at 25 µM
SK-OV-3 [19] = test: Induction of apoptosis in human SK-OV-3 cells assessed as viable cells at 10 umol/L incubated for 24 hrs by Annexin V-FITC/PI staining based flow cytometric analysis (reference value: 89.83 %); assay type: functional; details: SK-OV-3, 24 h, dose 10 µmol/L, read-out: Activity
SK-OV-3 [20] = test: Induction of apoptosis in human SK-OV-3 cells assessed as viable cells at 15 umol/L incubated for 24 hrs by Annexin V-FITC/PI staining based flow cytometric analysis (reference value: 89.83 %); assay type: functional; details: SK-OV-3, 24 h, dose 15 µmol/L, read-out: Activity
SK-OV-3 [21] = test: Induction of apoptosis in human SK-OV-3 cells assessed as early apoptotic cells at 20 umol/L incubated for 24 hrs by Annexin V-FITC/PI staining based flow cytometric analysis (reference value: 4.66 %); assay type: functional; details: dose 20 µmol/L, at 20 µM
SK-OV-3 [22] = test: Induction of apoptosis in human SK-OV-3 cells assessed as late apoptotic cells at 5 umol/L incubated for 24 hrs by Annexin V-FITC/PI staining based flow cytometric analysis (reference value: 5.51 %); assay type: functional; details: dose 5 µmol/L, at 5 µM
MCF7 = test: Antiproliferative activity against human MCF7 cells assessed as inhibition of cell growth incubated for 72 hrs by MTT assay; assay type: functional, cell-based; details: MCF7, 72 h
SK-OV-3 [23] = test: Induction of apoptosis in human SK-OV-3 cells assessed as early apoptotic cells at 15 umol/L incubated for 24 hrs by Annexin V-FITC/PI staining based flow cytometric analysis (reference value: 4.66 %); assay type: functional; details: dose 15 µmol/L, at 15 µM
[24] = Selectivity index, ratio of IC50 for cytotoxicity against HEK293T cells to IC50 for antiproliferative activity against human HeLa cells; assay type: toxicity, cell-based; details: HEK293T cells versus HeLa cells, read-out: Ratio IC50
HeLa [25] = test: Antitumor activity against human HeLa cells xenografted in wildtype zebrafish AB yolk sac assessed as tumor fluorescence intensity at 15 uM measured immediately by fluorescence based assay; assay type: functional
HeLa [26] = test: Antitumor activity against human HeLa cells xenografted in wildtype zebrafish AB yolk sac assessed as tumor fluorescence intensity at 15 uM measured 48 hrs post injection by fluorescence based assay; assay type: functional
HeLa [27] = test: Antitumor activity against human HeLa cells xenografted in wildtype zebrafish AB yolk sac assessed as tumor fluorescence area at 15 uM measured immediately by fluorescence based assay; assay type: functional
HeLa [28] = test: Antitumor activity against human HeLa cells xenografted in wildtype zebrafish AB yolk sac assessed as tumor fluorescence area at 15 uM measured 48 hrs post injection by fluorescence based assay; assay type: functional

SMILES: C[C@]12CC[C@@H]3c4cc(NC(=O)CCCCCC[Se]C#N)c(O)cc4CC[C@H]3[C@@H]1CCC2=O
- Activity (SK-OV-3 [1]): 51.6%
- IC50 (HeLa [2]): 10.2 µM
- IC50 (T47D): 24.9 µM
- Activity (SK-OV-3 [3]): 50.48%
- viability at 25 µM (SK-OV-3 [4]): 6.93%
- IC50 (HepG2): 10.1 µM
- viability at 20 µM (SK-OV-3 [5]): 12.5%
- viability at 5 µM (SK-OV-3 [6]): 43.9%
- Activity (SK-OV-3 [7]): 27.75%
- Activity (SK-OV-3 [8]): 36.97%
- Activity (SK-OV-3 [9]): 0.2%
- Activity (SK-OV-3 [10]): 0.45%
- IC50 at 72 h [11]: 14.4 µM
- Activity (SK-OV-3 [12]): 42.27%
- Activity (SK-OV-3 [13]): 0.17%
- Activity (SK-OV-3 [14]): 32.38%
- Activity (SK-OV-3 [15]): 58.26%
- IC50 (SK-OV-3 [16]): 8.2 µM
- Activity (SK-OV-3 [17]): 0.04%
- Activity (SK-OV-3 [18]): 0.33%
- viability at 10 µM (SK-OV-3 [19]): 30.2%
- viability at 15 µM (SK-OV-3 [20]): 16.3%
- Activity (SK-OV-3 [21]): 29.04%
- Activity (SK-OV-3 [22]): 28.34%
- IC50 (MCF7): 10.1 µM
- Activity (SK-OV-3 [23]): 31.88%

SMILES: C[C@]12CC[C@@H]3c4ccc(OCCCCC[Se]C#N)cc4CC[C@H]3[C@@H]1CCC2=O
- IC50 (HeLa [2]): 9.5 µM
- IC50 (T47D): 68.2 µM
- IC50 (HepG2): > 100 µM
- selectivity ratio [24]: 8.1
- Flu intensity (HeLa [25]): 43169.53
- IC50 at 72 h [11]: 77.2 µM
- IC50 (SK-OV-3 [16]): 31 µM
- Flu intensity (HeLa [26]): 5328.6
- Activity (HeLa [27]): 79354.17 pixel
- Activity (HeLa [28]): 12391.83 pixel
- IC50 (MCF7): 38.3 µM
